Assays:
KRas WT = KRas WT (Homo sapiens, UniProt P01116); test: KRas binding assay (TR-FRET displacement), KRas WT; conditions: TR-FRET displacement
KRas G12C = KRas G12C (Homo sapiens, UniProt P01116, G12C); assay type: binding; conditions: TR-FRET displacement, read-out: Binding to KRas (IC50 nM) G12C
KRas G12S = KRas G12S (Homo sapiens, UniProt P01116, G12S); assay type: binding; conditions: TR-FRET displacement, read-out: Binding to KRas (IC50 nM) G12S
MKN1 cells = test: Inhibition of KRas-mediated phosphorylation of ERK (Cisbio HTRF pERK), MKN1 cells; assay type: cell-based; conditions: Homo sapiens, MKN-1, 3 hr compound incubation
Procedure, shortened: (§1)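 Growth medium is RPMI with 10% FBS, and each well receives 6,000 cells on the first day of the protocol.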

PSN1 cells = test: Inhibition of KRas-mediated phosphorylation of ERK (Cisbio HTRF pERK), PSN1 cells; assay type: cell-based; conditions: Homo sapiens, PSN1, 3 h, 3 hr compound incubation
Procedure, shortened: as §1

ASPC1 cells = test: Inhibition of KRas-mediated phosphorylation of ERK (Cisbio HTRF pERK), ASPC1 cells; assay type: cell-based; conditions: Homo sapiens, ASPC1, 3 h, AsPC-1 cells; 3 hr compound incubation
H727 cells = test: Inhibition of KRas-mediated phosphorylation of ERK (Cisbio HTRF pERK), H727 cells; assay type: cell-based; conditions: Homo sapiens, NCI-H727, 3 h, 3 hr compound incubation
A549 cells = test: Inhibition of KRas-mediated phosphorylation of ERK (Cisbio HTRF pERK), A549 cells; assay type: cell-based; conditions: Homo sapiens, A549, 3 h, 3 hr compound incubation
H460 cells = test: Inhibition of KRas-mediated phosphorylation of ERK (Cisbio HTRF pERK), H460 cells; assay type: cell-based; conditions: Homo sapiens, NCI-H460, 3 h, 3 hr compound incubation
HCT116 cells = test: Inhibition of KRas-mediated phosphorylation of ERK (Cisbio HTRF pERK), HCT116 cells; assay type: cell-based; conditions: Homo sapiens, HCT-116, 3 h, 3 hr compound incubation
H358 cells = test: Inhibition of KRas-mediated phosphorylation of ERK (Cisbio HTRF pERK), H358 cells; assay type: cell-based; conditions: Homo sapiens, NCI-H358, 3 h, 3 hr compound incubation
KRas G12D = KRas G12D (Homo sapiens, UniProt P01116, G12D); test: biochemical; conditions: Binding to KRas (IC50 nM) G12D, TR-FRET displacement, KRas G12D
KRas G12V = KRas G12V (Homo sapiens, UniProt P01116, G12V); test: biochemical; conditions: Binding to KRas (IC50 nM) G12V, TR-FRET displacement, KRas G12V
KRas G12R = KRas G12R (Homo sapiens, UniProt P01116, G12R); test: biochemical; conditions: Binding to KRas (IC50 nM) G12R, TR-FRET displacement, KRas G12R
Chain of KRas G12R (P01116 1-169 isoform P01116-2 G12R): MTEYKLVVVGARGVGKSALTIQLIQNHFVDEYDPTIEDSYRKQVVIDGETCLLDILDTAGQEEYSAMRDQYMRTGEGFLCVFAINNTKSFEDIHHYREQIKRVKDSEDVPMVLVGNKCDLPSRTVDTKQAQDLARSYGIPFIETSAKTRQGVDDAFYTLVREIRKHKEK

Chain of KRas G12V (P01116 1-169 isoform P01116-2 G12V): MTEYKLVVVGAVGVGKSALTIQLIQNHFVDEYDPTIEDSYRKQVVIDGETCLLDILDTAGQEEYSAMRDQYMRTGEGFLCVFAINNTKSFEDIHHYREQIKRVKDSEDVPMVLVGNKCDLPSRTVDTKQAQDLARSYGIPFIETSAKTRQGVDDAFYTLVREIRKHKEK
Chain of KRas G12D (P01116 1-169 isoform P01116-2 G12D): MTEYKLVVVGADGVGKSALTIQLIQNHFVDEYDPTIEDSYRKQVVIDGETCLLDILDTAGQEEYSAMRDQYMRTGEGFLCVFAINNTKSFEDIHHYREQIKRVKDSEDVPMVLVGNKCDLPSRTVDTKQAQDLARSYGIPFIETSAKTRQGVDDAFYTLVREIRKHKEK
Chain of KRas G12S (P01116 1-169 isoform P01116-2 G12S): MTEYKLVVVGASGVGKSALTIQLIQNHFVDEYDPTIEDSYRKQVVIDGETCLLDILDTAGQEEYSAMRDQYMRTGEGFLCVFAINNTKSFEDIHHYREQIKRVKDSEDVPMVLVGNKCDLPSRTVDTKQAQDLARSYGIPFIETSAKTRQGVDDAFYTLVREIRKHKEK
Chain of KRas G12C (P01116 1-169 isoform P01116-2 G12C): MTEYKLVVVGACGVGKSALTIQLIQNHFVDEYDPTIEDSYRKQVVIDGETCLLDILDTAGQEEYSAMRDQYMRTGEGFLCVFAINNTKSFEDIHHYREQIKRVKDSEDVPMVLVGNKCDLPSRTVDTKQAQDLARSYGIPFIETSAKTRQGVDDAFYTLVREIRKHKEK
Chain of KRas WT (P01116 1-169 isoform P01116-2): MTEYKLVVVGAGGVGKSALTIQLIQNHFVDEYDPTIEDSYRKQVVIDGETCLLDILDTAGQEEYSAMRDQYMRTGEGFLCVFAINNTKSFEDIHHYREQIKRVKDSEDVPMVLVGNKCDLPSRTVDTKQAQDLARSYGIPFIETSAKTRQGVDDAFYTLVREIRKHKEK

C[C@@H]1C[C@@H]1c1c(Cl)cc(O)cc1N1CCc2c(nc(OC[C@@]34CCCN3C[C@H](F)C4)nc2N2CCC[C@]3(C2)NC(=O)NC3=O)C1 (stereo in doubt) [Example 653, (R)-7-(7-(3-chloro-5-hydroxy-2-(cis-2-methylcyclopropyl)phenyl)-2-(((2R,7aS)-2-fluorotetrahydro-1H-pyrrolizin-7a(5H)-yl)methoxy)-5,6,7,8-tetrahydropyrido[3,4-d]pyrimidin-4-yl)-1,3,7-triazaspiro[4.5]decane-2,4-dione]
IC50 (KRas WT): < 2 nM
IC50 (KRas G12C): < 2 nM
IC50 (KRas G12S): < 2 nM
IC50 (MKN1 cells): 2.4 nM
IC50 (PSN1 cells): 131 nM
IC50 (ASPC1 cells): 70 nM
IC50 (H727 cells): 60 nM
IC50 (A549 cells): 17 nM
IC50 (H460 cells): 12 nM
IC50 (HCT116 cells): 28 nM
IC50 (H358 cells): 6 nM
IC50 (KRas G12D): < 2 nM
IC50 (KRas G12V): < 2 nM

CCc1c(F)ccc2cc(O)cc(N3CCc4c(nc(OC[C@@]56CCCN5C[C@H](F)C6)nc4N4CCCn5nc(N)nc5C4)C3)c12 [Example 631, 4-(4-(2-amino-6,7-dihydro-5H-[1,2,4]triazolo[1,5-a][1,4]diazepin-8(9H)-yl)-2-(((2R,7aS)-2-fluorotetrahydro-1H-pyrrolizin-7a(5H)-yl)methoxy)-5,8-dihydropyrido[3,4-d]pyrimidin-7(6H)-yl)-5-ethyl-6-fluoronaphthalen-2-ol]
IC50 (MKN1 cells): 48.3 nM
IC50 (PSN1 cells): 7140 nM
IC50 (ASPC1 cells): 69 nM
IC50 (H727 cells): 356 nM
IC50 (A549 cells): 68 nM
IC50 (H460 cells): 341 nM
IC50 (HCT116 cells): 508 nM
IC50 (H358 cells): 24 nM
IC50 (KRas G12D): < 2 nM
IC50 (KRas G12R): < 2 nM
IC50 (KRas G12V): < 2 nM

O=S1(=O)CCC2(CCCN(c3nc(OC[C@@]45CCCN4C[C@H](F)C5)nc4c3CCN(c3cc(O)cc5ccc(F)c(Cl)c35)C4)C2)N1 (stereo partly drawn) [Example 632, 7-(7-(8-chloro-7-fluoro-3-hydroxynaphthalen-1-yl)-2-(((2R,7aS)-2-fluorotetrahydro-1H-pyrrolizin-7a(5H)-yl)methoxy)-5,6,7,8-tetrahydropyrido[3,4-d]pyrimidin-4-yl)-2-thia-1,7-diazaspiro[4.5]decane 2,2-dioxide]
IC50 (MKN1 cells): 4.1 nM
IC50 (PSN1 cells): 716 nM
IC50 (ASPC1 cells): 12 nM
IC50 (H727 cells): 32 nM
IC50 (A549 cells): 19 nM
IC50 (H460 cells): 21 nM
IC50 (HCT116 cells): 55 nM
IC50 (H358 cells): 6 nM
IC50 (KRas G12D): < 2 nM
IC50 (KRas G12R): < 2 nM
IC50 (KRas G12V): < 2 nM

CCc1c(F)ccc2cc(O)cc(N3CCc4c(nc(OC[C@@]56CCCN5C[C@H](F)C6)nc4N4CCCn5ncc(C(N)=O)c5C4)C3)c12 [Example 634, 5-(7-(8-ethyl-7-fluoro-3-hydroxynaphthalen-1-yl)-2-(((2R,7aS)-2-fluorotetrahydro-1H-pyrrolizin-7a(5H)-yl)methoxy)-5,6,7,8-tetrahydropyrido[3,4-d]pyrimidin-4-yl)-5,6,7,8-tetrahydro-4H-pyrazolo[1,5-a][1,4]diazepine-3-carboxamide]
IC50 (MKN1 cells): 103 nM
IC50 (PSN1 cells): > 10000 nM
IC50 (ASPC1 cells): 102 nM
IC50 (H727 cells): 284 nM
IC50 (A549 cells): 346 nM
IC50 (H460 cells): 585 nM
IC50 (HCT116 cells): 1420 nM
IC50 (H358 cells): 45 nM
IC50 (KRas G12D): < 2 nM
IC50 (KRas G12R): < 2 nM
IC50 (KRas G12V): < 2 nM

CCc1c(F)ccc2cc(O)cc(N3CCc4c(nc(OC[C@@]56CCCN5C[C@H](F)C6)nc4N4CCCn5ncc(C(=O)NC)c5C4)C3)c12 [Example 635, 5-(7-(8-ethyl-7-fluoro-3-hydroxynaphthalen-1-yl)-2-(((2R,7aS)-2-fluorotetrahydro-1H-pyrrolizin-7a(5H)-yl)methoxy)-5,6,7,8-tetrahydropyrido[3,4-d]pyrimidin-4-yl)-N-methyl-5,6,7,8-tetrahydro-4H-pyrazolo[1,5-a][1,4]diazepine-3-carboxamide]
IC50 (MKN1 cells): 158 nM
IC50 (PSN1 cells): > 10000 nM
IC50 (ASPC1 cells): 134 nM
IC50 (H727 cells): 230 nM
IC50 (A549 cells): 609 nM
IC50 (H460 cells): 567 nM
IC50 (HCT116 cells): 1320 nM
IC50 (H358 cells): 87 nM
IC50 (KRas G12D): < 2 nM
IC50 (KRas G12R): < 2 nM
IC50 (KRas G12V): < 2 nM

CCc1c(F)ccc2cc(O)cc(N3CCc4c(nc(OC[C@@]56CCCN5C[C@H](F)C6)nc4N4CCCn5ncc(C(=O)N(C)C)c5C4)C3)c12 [Example 636, 5-(7-(8-ethyl-7-fluoro-3-hydroxynaphthalen-1-yl)-2-(((2R,7aS)-2-fluorotetrahydro-1H-pyrrolizin-7a(5H)-yl)methoxy)-5,6,7,8-tetrahydropyrido[3,4-d]pyrimidin-4-yl)-N,N-dimethyl-5,6,7,8-tetrahydro-4H-pyrazolo[1,5-a][1,4]diazepine-3-carboxamide]
IC50 (MKN1 cells): 81.1 nM
IC50 (PSN1 cells): > 10000 nM
IC50 (ASPC1 cells): 29 nM
IC50 (H727 cells): 153 nM
IC50 (A549 cells): 200 nM
IC50 (H460 cells): 418 nM
IC50 (HCT116 cells): 1110 nM
IC50 (H358 cells): 45 nM
IC50 (KRas G12D): < 2 nM
IC50 (KRas G12R): < 2 nM
IC50 (KRas G12V): < 2 nM

CCc1c(F)ccc2cc(O)cc(N3CCc4c(nc(OC[C@@]56CCCN5C[C@H](F)C6)nc4N4CCCn5ncc(C)c5C4)C3)c12 [Example 641, 5-ethyl-6-fluoro-4-(2-(((2R,7aS)-2-fluorotetrahydro-1H-pyrrolizin-7a(5H)-yl)methoxy)-4-(3-methyl-7,8-dihydro-4H-pyrazolo[1,5-a][1,4]diazepin-5(6H)-yl)-5,8-dihydropyrido[3,4-d]pyrimidin-7(6H)-yl)naphthalen-2-ol]
IC50 (MKN1 cells): 303 nM
IC50 (PSN1 cells): > 10000 nM
IC50 (ASPC1 cells): 179 nM
IC50 (H727 cells): 216 nM
IC50 (A549 cells): 225 nM
IC50 (H460 cells): 481 nM
IC50 (HCT116 cells): 1010 nM
IC50 (H358 cells): 109 nM
IC50 (KRas G12D): < 2 nM
IC50 (KRas G12R): < 2 nM
IC50 (KRas G12V): 2 nM

CCc1c(F)ccc2cc(O)cc(N3CCc4c(nc(OC[C@@]56CCCN5C[C@H](F)C6)nc4N4CCCn5ncc(Cl)c5C4)C3)c12 [Example 642, 4-(4-(3-chloro-7,8-dihydro-4H-pyrazolo[1,5-a][1,4]diazepin-5(6H)-yl)-2-(((2R,7aS)-2-fluorotetrahydro-1H-pyrrolizin-7a(5H)-yl)methoxy)-5,8-dihydropyrido[3,4-d]pyrimidin-7(6H)-yl)-5-ethyl-6-fluoronaphthalen-2-ol]
IC50 (MKN1 cells): 120 nM
IC50 (PSN1 cells): > 10000 nM
IC50 (ASPC1 cells): 59 nM
IC50 (H727 cells): 200 nM
IC50 (A549 cells): 145 nM
IC50 (H460 cells): 325 nM
IC50 (HCT116 cells): 738 nM
IC50 (H358 cells): 105 nM
IC50 (KRas G12D): < 2 nM
IC50 (KRas G12R): 3 nM
IC50 (KRas G12V): < 2 nM

CCc1c(F)ccc2cc(O)cc(N3CCc4c(nc(OC[C@@]56CCCN5C[C@H](F)C6)nc4N4CCCC5(CCS(=O)(=O)N5)C4)C3)c12 (stereo partly drawn) [Example 643, 7-(7-(8-ethyl-7-fluoro-3-hydroxynaphthalen-1-yl)-2-(((2R,7aS)-2-fluorotetrahydro-1H-pyrrolizin-7a(5H)-yl)methoxy)-5,6,7,8-tetrahydropyrido[3,4-d]pyrimidin-4-yl)-2-thia-1,7-diazaspiro[4.5]decane 2,2-dioxide]
IC50 (MKN1 cells): 39.9 nM
IC50 (PSN1 cells): 4880 nM
IC50 (ASPC1 cells): 27 nM
IC50 (H727 cells): 211 nM
IC50 (A549 cells): 266 nM
IC50 (H460 cells): 67 nM
IC50 (HCT116 cells): 312 nM
IC50 (H358 cells): 30 nM
IC50 (KRas G12D): < 2 nM
IC50 (KRas G12R): < 2 nM
IC50 (KRas G12V): < 2 nM

CCc1c(F)ccc2cc(O)cc(N3CCc4c(nc(OC[C@@]56CCCN5C[C@H](F)C6)nc4N4CCCN(c5nccs5)CC4)C3)c12 [Example 648, 5-ethyl-6-fluoro-4-(2-(((2R,7aS)-2-fluorotetrahydro-1H-pyrrolizin-7a(5H)-yl)methoxy)-4-(4-(thiazol-2-yl)-1,4-diazepan-1-yl)-5,8-dihydropyrido[3,4-d]pyrimidin-7(6H)-yl)naphthalen-2-ol]
IC50 (MKN1 cells): 101 nM
IC50 (PSN1 cells): > 10000 nM
IC50 (ASPC1 cells): 1940 nM
IC50 (H727 cells): 2330 nM
IC50 (A549 cells): 1130 nM
IC50 (H460 cells): 184 nM
IC50 (HCT116 cells): 570 nM
IC50 (H358 cells): 710 nM
IC50 (KRas G12D): 17 nM
IC50 (KRas G12R): 4 nM
IC50 (KRas G12V): 7 nM

CCc1c(F)ccc2cc(O)cc(N3CCc4c(nc(OC[C@@]56CCCN5C[C@H](F)C6)nc4N4C[C@H]5CC[C@@H](C4)[C@@H]5C#N)C3)c12 [Example 651, (1R,5S,8S)-3-(7-(8-ethyl-7-fluoro-3-hydroxynaphthalen-1-yl)-2-(((2R,7aS)-2-fluorotetrahydro-1H-pyrrolizin-7a(5H)-yl)methoxy)-5,6,7,8-tetrahydropyrido[3,4-d]pyrimidin-4-yl)-3-azabicyclo[3.2.1]octane-8-carbonitrile]
IC50 (MKN1 cells): 23 nM
IC50 (PSN1 cells): > 10000 nM
IC50 (ASPC1 cells): 572 nM
IC50 (H727 cells): 84 nM
IC50 (A549 cells): 94 nM
IC50 (H460 cells): 165 nM
IC50 (HCT116 cells): 516 nM
IC50 (H358 cells): 45 nM
IC50 (KRas G12D): 18 nM
IC50 (KRas G12R): < 2 nM
IC50 (KRas G12V): < 2 nM
